For orientation: pIC50 means the IC50 on a negative log10 scale, so that one unit is a factor of ten.

The text below walks through data of patent US11478461B2, “[1.1.1] bicyclo compounds as indoleamine 2,3-dioxygenase inhibitors” (Merck Sharp & Dohme Corp., priority 2018, dated 2022).

The assay addresses IDO1 (Homo sapiens, UniProt P14902). As to the kind of experiment: IDO1 Cellular Assay in Hela Cells Stimulated with IFNγ. The assay is classed as cell-based. The following applies: IFNγ 100 ng/mL, 300 uM L-tryptophan, about 48 hours, fluorescence readout, read-out: IDO1 HELA Cell Assay, IC50. The protocol:
Biological Assays IDO1 Cellular Assay in Hela Cells Stimulated with IFNγ
Hela cells were cultured in complete Hela culture medium ([…], 10% heat-inactivated fetal bovine serum) and expanded to about 1×10^9 cells. The cells were then collected and frozen down at 10×10^6 cells/vial in 1 mL frozen medium (90% complete Hela culture medium, 10% DMSO).
Compounds to be tested were serially diluted in ten 3-fold steps in DMSO starting from 10 mM DMSO stocks in Echo low volume plate(s). Compound dilutions or DMSO alone were then dispensed from the dilution plate(s) into Greiner black 384-well assay plate(s) (catalog #781086, 50 nL/well) using an Echo 550 acoustic liquid handler (Labcyte).
Frozen Hela cells were thawed and transferred into Hela assay medium (99% complete Hela culture medium, 1% Pen/Strep) with 20 mL medium/vial of cells. The cells were spun down at 250 g in a table top centrifuge for 5 min and suspended in same volume of Hela assay medium. […] Sterile L-tryptophan were added to the cells with final concentration of 300 uM L-tryptophan. A small aliquot (2 mL/plate) of Hela cells were set aside and were not treated with IFNγ, to serve as the Max-E control. The rest of Hela cells were added with sterile IFNγ (Cat #285-IF, R & D systems) with a final concentration of 100 ng/mL.
Hela cells with and without IFNγ were dispensed to the respective wells of 384-well assay plates containing the compounds. The plates were incubated for about 48 hours at a 37° C., 5% CO2 incubator. Afterwards, 12 μL of 0.5 M methyl isonipecotate in dimethyl sulfoxide were added into each well and the plates were sealed and incubated at 37° C. without CO2 overnight. The plates were centrifuged for 1 min at 200×g. The resulting fluorescence was measured in a Spectramax plate reader (Molecular Devices) with a 400 nm excitation filter and a 510 nm emission filter.
Potencies were calculated by […] least squares fit to the four parameter logistic IC50 equation.

The structures appear in SMILES notation. pIC50: −log10 of the molar value.

IDO1, sequence (P14902 whole entry): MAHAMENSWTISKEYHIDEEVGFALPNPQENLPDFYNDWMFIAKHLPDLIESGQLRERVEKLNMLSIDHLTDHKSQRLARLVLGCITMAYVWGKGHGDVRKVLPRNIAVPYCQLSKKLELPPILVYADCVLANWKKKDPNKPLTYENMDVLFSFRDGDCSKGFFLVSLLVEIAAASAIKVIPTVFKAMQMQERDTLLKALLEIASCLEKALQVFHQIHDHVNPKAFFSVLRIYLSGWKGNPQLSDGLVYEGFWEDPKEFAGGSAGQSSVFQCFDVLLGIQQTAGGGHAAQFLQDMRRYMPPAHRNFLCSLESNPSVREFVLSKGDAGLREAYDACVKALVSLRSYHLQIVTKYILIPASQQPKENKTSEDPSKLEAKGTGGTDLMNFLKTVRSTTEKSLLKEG

Turning to `C[C@H](C(=O)Nc1ccc(F)cc1)C12CC(NC(=O)c3ccc(Cl)nc3)(C1)C2` [Example 60, 6-chloro-N-[3-[(1S)-2-(4-fluoroanilino)-1-methyl-2-oxo-ethyl]-1-bicyclo[1.1.1]pentanyl]pyridin-1-ium-3-carboxamide], the pIC50 is 6.80.
Regarding `C[C@H](C(=O)Nc1ccc(C(F)(F)F)cc1)C12CC(NC(=O)c3ccc(Cl)c(Cl)c3)(C1)C2` [Example 98, (S)-3,4-dichloro-N-(3-(1-oxo-1-((4-(trifluoromethyl)phenyl)amino)propan-2-yl)bicyclo[1.1.1]pentan-1-yl)benzamide], the pIC50 was 7.64.
As to `O=C(NC12CC(C3(C(=O)Nc4ccc(F)c(F)c4)COC3)(C1)C2)c1cccc(Cl)c1` [Example 105, 3-(3-(3-Chlorobenzamido)bicyclo[1.1.1]pentan-1-yl)-N-(3,4-difluorophenyl)oxetane-3-carboxamide], the pIC50 was 7.45.
The same measure for `CC(C(=O)Nc1ccc(F)cc1)C12CC(NC(=O)c3cccc4ccncc34)(C1)C2` (centres unmarked) [Example 130, N-[3-[2-(4-fluoroanilino)-1-methyl-2-oxo-ethyl]-1-bicyclo[1.1.1]pentanyl]isoquinolin-2-ium-8-carboxamide]: 6.61; for `CC(C(=O)Nc1ccc(F)cc1)C12CC(NC(=O)c3cccc4cnccc34)(C1)C2` (centres unmarked) [Example 134, N-[3-[2-(4-fluoroanilino)-1-methyl-2-oxo-ethyl]-1-bicyclo[1.1.1]pentanyl]isoquinolin-2-ium-5-carboxamide]: 6.57.
For `CC(C(=O)Nc1ccc(F)cc1)C12CC(NC(=O)c3cc4ccccc4cn3)(C1)C2` (centres unmarked) [Example 144, N-[3-[2-(4-fluoroanilino)-1-methyl-2-oxo-ethyl]-1-bicyclo[1.1.1]pentanyl]isoquinolin-2-ium-3-carboxamide], the pIC50 was 6.33.
Take `CC(C(=O)Nc1ccc(F)cc1)C12CC(NC(=O)c3cccnc3)(C1)C2` (centres unmarked) [Example 142, N-[3-[2-(4-fluoroanilino)-1-methyl-2-oxo-ethyl]-1-bicyclo[1.1.1]pentanyl]pyridin-1-ium-3-carboxamide]: the pIC50 was 6.38.
For the molecule `CCOc1cccc(C(=O)NC23CC(C(C)C(=O)Nc4ccc(F)cc4)(C2)C3)n1` (centres unmarked) [Example 138, 6-ethoxy-N-[3-[2-(4-fluoroanilino)-1-methyl-2-oxo-ethyl]-1-bicyclo[1.1.1]pentanyl]pyridin-1-ium-2-carboxamide], the pIC50 was 6.41.
With `C[C@@H](C(=O)Nc1ccc(F)cc1)C12CC(NC(=O)c3cccc(Cl)c3F)(C1)C2` [Example 38, 3-chloro-2-fluoro-N-[3-[(1R)-2-(4-fluoroanilino)-1-methyl-2-oxo-ethyl]-1-bicyclo[1.1.1]pentanyl]benzamide], the pIC50 was 8.70.
Take `C[C@H](C(=O)Nc1ccc(F)cc1)C12CC(NC(=O)c3cccc(C(F)(F)F)n3)(C1)C2` [Example 152, (S)-N-(3-(1-((4-fluorophenyl)amino)-1-oxopropan-2-yl)bicyclo[1.1.1]pentan-1-yl)-6-(trifluoromethyl)picolinamide]: the negative logarithm of the IC50 (pIC50) was 7.46.
For `C[C@H](C(=O)Nc1ccc(F)cc1)C12CC(NC(=O)c3ccc(C#N)c(Cl)c3)(C1)C2` [Example 150, (S)-3-chloro-4-cyano-N-(3-(1-((4-fluorophenyl)amino)-1-oxopropan-2-yl)bicyclo[1.1.1]pentan-1-yl)benzamide], the pIC50 was 7.32.
Turning to `Cc1ncc(C(=O)NC23CC([C@H](C)C(=O)Nc4ccc(F)cc4)(C2)C3)cc1F` [Example 65, 5-fluoro-N-[3-[(1S)-2-(4-fluoroanilino)-1-methyl-2-oxo-ethyl]-1-bicyclo[1.1.1]pentanyl]-6-methyl-pyridin-1-ium-3-carboxamide], the pIC50 is 7.55.
Turning to `CC(C(=O)Nc1ccc(F)cc1)C12CC(NC(=O)c3cnnc4ccccc34)(C1)C2` (centres unmarked) [Example 135, N-[3-[2-(4-fluoroanilino)-1-methyl-2-oxo-ethyl]-1-bicyclo[1.1.1]pentanyl]cinnoline-4-carboxamide], the pIC50 was 6.56.
Take `CC(C(=O)Nc1ccc(F)cc1)C12CC(NC(=O)c3ncccc3F)(C1)C2` (centres unmarked) [Example 137, 3-fluoro-N-[3-[2-(4-fluoroanilino)-1-methyl-2-oxo-ethyl]-1-bicyclo[1.1.1]pentanyl]pyridin-1-ium-2-carboxamide]: the pIC50 was 6.41.
In the case of `C[C@H](C(=O)Nc1ccc(F)cc1)C12CC(NC(=O)c3ccc(C(F)(F)F)nc3)(C1)C2` [Example 146, (S)-N-(3-(1-((4-fluorophenyl)amino)-1-oxopropan-2-yl)bicyclo[1.1.1]pentan-1-yl)-6-(trifluoromethyl)nicotinamide], the pIC50 was 6.66.
Turning to `C[C@H](C(=O)Nc1ccc(F)cc1)C12CC(NC(=O)OC(C)(C)C)(C1)C2` (single isomer, unassigned) [Example 32], the pIC50 is 6.94.
`Cc1ccc(C(=O)NC23CC([C@@H](C)C(=O)Nc4ccc(F)cc4)(C2)C3)cc1F` [Example 41, 3-fluoro-N-[3-[(1R)-2-(4-fluoroanilino)-1-methyl-2-oxo-ethyl]-1-bicyclo[1.1.l]pentanyl]-4-methyl-benzamide]: the pIC50 is 6.39.
In the case of `C[C@H](C(=O)Nc1ccc(F)cc1)C12CC(NC(=O)Nc3cccc(C(F)(F)F)c3)(C1)C2` [Example 87, (S)-N-(4-fluorophenyl)-2-(3-(3-(3-(trifluoromethyl)phenyl)ureido)bicyclo[1.1.1]pentan-1-yl)propanamide], the pIC50 is 7.04.
`C[C@H](C(=O)Nc1ccc(F)cc1)C12CC(NC(=O)OCc3ccccc3)(C1)C2` [Example 78, benzyl (S)-(3-(1-((4-fluorophenyl)amino)-1-oxopropan-2-yl)bicyclo[1.1.1]pentan-1-yl)carbamate]: the pIC50 is 7.66.
Consider `C[C@@H](C(=O)Nc1ccc(F)c(F)c1)C12CC(NC(=O)c3ccc(Cl)c(Cl)c3)(C1)C2` [Example 91, (R)-3,4-dichloro-N-(3-(1-((3,4-difluorophenyl)amino)-1-oxopropan-2-yl)bicyclo[1.1.1]pentan-1-yl)benzamide], for which the pIC50 was 6.91.
Take `Cc1cc(C(=O)NC23CC([C@@H](C)C(=O)Nc4ccc(F)cc4)(C2)C3)ccc1Cl` [Example 37, 4-chloro-N-[3-[(1R)-2-(4-fluoroanilino)-1-methyl-2-oxo-ethyl]-1-bicyclo[1.1.l]pentanyl]-3-methyl-benzamide]: the pIC50 is 6.87.
Turning to `CC(C(=O)Nc1ccc(F)cc1)C12CC(NC(=O)c3ccn(C(F)F)n3)(C1)C2` (centres unmarked) [Example 131, 1-(difluoromethyl)-N-[3-[2-(4-fluoroanilino)-1-methyl-2-oxo-ethyl]-1-bicyclo[1.1.1]pentanyl]pyrazole-3-carboxamide], the pIC50 is 6.61.
Take `CC(NC(=O)c1ccc(F)cc1)C12CC(NC(=O)c3ccc(Cl)c(Cl)c3)(C1)C2` (single isomer, unassigned) [Example 21, 3,4-Dichloro-N-(3-(1-(4-fluorobenzamido)ethyl)bicyclo [1.1.1]pentan-1-yl) Benzamide]: the pIC50 was 6.04.
As for `CC(C)(C(=O)Nc1ccc(F)cc1)C12CC(NC(=O)c3cccc(Cl)c3)(C1)C2` [Example 102, 3-Chloro-N-(3-(1-((4-fluorophenyl)amino)-2-methyl-1-oxopropan-2-yl)bicyclo[1.1.1]pentan-1-yl)benzamide], the pIC50 was 7.72.
Take `Cc1ccc(C(=O)NC23CC(C(C)C(=O)Nc4ccc(F)cc4)(C2)C3)cn1` (centres unmarked) [Example 132, N-[3-[2-(4-fluoroanilino)-1-methyl-2-oxo-ethyl]-1-bicyclo[1.1.1]pentanyl]-6-methyl-pyridin-1-ium-3-carboxamide]: the pIC50 is 6.60.
`C[C@H](C(=O)Nc1ccc(F)cc1)C12CC(NC(=O)c3ccc(Cl)c(Cl)n3)(C1)C2` [Example 149, (S)-5,6-dichloro-N-(3-(1-((4-fluorophenyl)amino)-1-oxopropan-2-yl)bicyclo[1.1.1]pentan-1-yl)picolinamide]: the pIC50 was 7.57.
On to `C[C@@H](C(=O)Nc1ccc(F)cc1)C12CC(NC(=O)c3cc(F)cc(Cl)c3)(C1)C2` [Example 40, 3-chloro-5-fluoro-N-[3-[(1R)-2-(4-fluoroanilino)-1-methyl-2-oxo-ethyl]-1-bicyclo[1.1.1]pentanyl]benzamide], for which the pIC50 is 8.63.
For `CC(C(=O)Nc1ccc(F)cc1)C12CC(NC(=O)c3ccc(C(F)(F)F)cn3)(C1)C2` (centres unmarked) [Example 133, N-[3-[2-(4-fluoroanilino)-1-methyl-2-oxo-ethyl]-1-bicyclo[1.1.1]pentanyl]-5-(trifluoromethyl)pyridin-1-ium-2-carboxamide], the negative-log IC50 (pIC50) was 6.59.
As to `Cc1ccn2ncc(C(=O)NC34CC(C(C)C(=O)Nc5ccc(F)cc5)(C3)C4)c2c1` (centres unmarked) [Example 124, N-[3-[2-(4-fluoroanilino)-1-methyl-2-oxo-ethyl]-1-bicyclo[1.1.1]pentanyl]-5-methyl-pyrazolo[1,5-a]pyridin-1-ium-3-carboxamide], the pIC50 is 6.82.
